Measurements published in patent US8629143B2, “Potassium channel modulators” (AbbVie Inc., priority 2009, dated 2014).

Molecular target: T1, KCNQ 2/3 channels (HEK293 cells stably expressing human KCNQ2 and KCNQ3 subunits) (Homo sapiens, UniProt O43525+O43526)
T1 construct: expressed in transfected cells; host or cells: HEK293
Assay: KCNQ2/3 channel activation, thallium flux FLIPR assay with BTC-AM dye
Format: cell-based
Conditions: for Emax: HEK293, maximum response relative to the response produced by 10 μM retigabine (set at 100%), read-out: Max. %; for EC50: HEK293 cells expressing human KCNQ2 and KCNQ3, thallium flux, FLIPR
Summary of the method: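 HEK293 cells stably expressing human KCNQ2/KCNQ3 were loaded with BTC-AM (3 μg/mL, 2 h, RT) and preincubated with compound for 4 min in pH 7.3 gluconate buffer containing 0.1 mM ouabain. Flux was triggered by 6 mM TlNO3/10 mM K2SO4 and read for 3 min; EC50 came from summed responses over basal, with maximum relative to 10 μM retigabine (100%).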

Row | SMILES | Emax [%] | EC50 [µM]
1 | O=C(Cc1cc(F)cc(F)c1)Nn1nc(Cl)c2ccccc2c1=O [Example 19, N-(4-chloro-1-oxophthalazin-2(1H)-yl)-2-(3,5-difluorophenyl)acetamide] | 45 | 1 to 10
2 | O=C(CC12CC3CC(CC(C3)C1)C2)Nn1nc(-c2ccccc2)c2sccc2c1=O [Example 9, 2-(1-adamantyl)-N-(4-oxo-7-phenylthieno[2,3-d]pyridazin-5(4H)-yl)acetamide] | 241 | 0.5 to 1
3 | CC(C)c1nn(NC(=O)CC23CC4CC(C)(CC(C)(C4)C2)C3)c(=O)c2ccccc12 [Example 34, 2-[3,5-dimethyl-1-adamantyl]-N-(4-isopropyl-1-oxophthalazin-2(1H)-yl)acetamide] | 184 | 0.1 to 0.5
4 | O=C(CC12CC3CC(CC(C3)C1)C2)Nn1nc(-c2ccccc2)c2ccsc2c1=O [Example 29, 2-(1-adamantyl)-N-(7-oxo-4-phenylthieno[2,3-d]pyridazin-6(7H)-yl)acetamide] | 173 | 0.1 to 0.5
5 | O=C(Cc1ccccc1)Nn1nc(C(F)(F)F)c2ccccc2c1=O [Example 57, N-[1-oxo-4-(trifluoromethyl)phthalazin-2(1H)-yl]-2-phenylacetamide] | 85 | 1 to 10
6 | O=C(CC12CC3CC(CC(C3)C1)C2)Nn1nc(-c2ccccc2)c2cccnc2c1=O [Example 7, 2-(1-adamantyl)-N-(8-oxo-5-phenylpyrido[2,3-d]pyridazin-7(8H)-yl)acetamide] | 136 | 1 to 10
7 | CC(C)c1nn(NC(=O)Cc2ccc(Cl)cc2)c(=O)c2ccccc12 [Example 1, 2-(4-chlorophenyl)-N-(4-isopropyl-1-oxophthalazin-2(1H)-yl)acetamide] | 125 | 0.1 to 0.5
8 | O=C(CC12CC3CC(CC(C3)C1)C2)Nn1nc(-c2ccc(Br)cc2)c2ccccc2c1=O [Example 2, 2-(1-adamantyl)-N-[4-(4-bromophenyl)-1-oxophthalazin-2(1H)-yl]acetamide] | 193 | 0.1 to 0.5
9 | CS(=O)(=O)c1ccc(CC(=O)Nn2nc(C(F)(F)F)c3ccccc3c2=O)cc1 [Example 49, 2-[4-(methylsulfonyl)phenyl]-N-[1-oxo-4-(trifluoromethyl)phthalazin-2(1H)-yl]acetamide] | 3 | > 10
10 | CC(C)c1nn(NC(=O)Cc2cc(F)cc(F)c2)c(=O)c2ccccc12 [Example 5, 2-(3,5-difluorophenyl)-N-(4-isopropyl-1-oxophthalazin-2(1H)-yl)acetamide] | 136 | 0.1 to 0.5
11 | O=C(CCc1ccccc1)Nn1nc(C(F)(F)F)c2ccccc2c1=O [Example 50, N-[1-oxo-4-(trifluoromethyl)phthalazin-2(1H)-yl]-3-phenylpropanamide] | 116 | > 10
12 | O=C(Cc1ccc(Cl)cc1)Nn1nc(C2CC2)c2ccccc2c1=O [Example 22, 2-(4-chlorophenyl)-N-(4-cyclopropyl-1-oxophthalazin-2(1H)-yl)acetamide] | 63 | 1 to 10
13 | O=C(Cc1ccc(Cl)s1)Nn1nc(C(F)(F)F)c2ccccc2c1=O [Example 55, 2-(5-chloro-2-thienyl)-N-[1-oxo-4-(trifluoromethyl)phthalazin-2(1H)-yl]acetamide] | 72 | 0.5 to 1
14 | O=C(Cc1ccc(Cl)cc1)Nn1nc(C(F)(F)F)c2ccccc2c1=O [Example 13, 2-(4-chlorophenyl)-N-[1-oxo-4-(trifluoromethyl)phthalazin-2(1H)-yl]acetamide] | 47 | 0.1 to 0.5
15 | O=C(Cc1cc(F)cc(F)c1)Nn1nc(-c2ccccc2)c2cc(F)ccc2c1=O [Example 35, 2-(3,5-difluorophenyl)-N-(6-fluoro-1-oxo-4-phenylphthalazin-2(1H)-yl)acetamide] | 192 | 0.1 to 0.5
16 | O=C(Cc1ccc(Cl)cc1)Nn1nc(-c2ccccc2)c2c(F)ccc(F)c2c1=O [Example 16, 2-(4-chlorophenyl)-N-(5,8-difluoro-1-oxo-4-phenylphthalazin-2(1H)-yl)acetamide] | 175 | 0.1 to 0.5

Now from value to compound:

Row | Emax [%] | EC50 [µM] | SMILES
17 | 130 | < 0.1 | O=C(C[C@H]1C[C@@H]2CC[C@H]1C2)Nn1nc(Cc2ccccc2)c2ccccc2c1=O (racemic) [Example 141, (±)-N-(4-benzyl-1-oxophthalazin-2(1H)-yl)-2-(exo-bicyclo[2.2.1]hept-2-yl)acetamide]
18 | 114 | 0.1 to 0.5 | COc1ccc(-c2nn(NC(=O)CC3CCC(C)CC3)c(=O)c3ccccc23)cc1 (stereo not drawn) [Example 152, N-[4-(4-methoxyphenyl)-1-oxophthalazin-2(1H)-yl]-2-(4-methylcyclohexyl)acetamide]
19 | 167 | 0.1 to 0.5 | Cc1ccc(C)c(-c2nn(NC(=O)Cc3cc(F)cc(F)c3)c(=O)c3ccccc23)c1 [Example 158, 2-(3,5-difluorophenyl)-N-[4-(2,5-dimethylphenyl)-1-oxophthalazin-2(1H)-yl]acetamide]
20 | 131 | 1 to 10 | O=C(Cc1cc(F)cc(F)c1)Nn1nc(-c2ccccc2)c2c(c1=O)CCC2 [Example 188, 2-(3,5-difluorophenyl)-N-(1-oxo-4-phenyl-1,5,6,7-tetrahydro-2H-cyclopenta[d]pyridazin-2-yl)acetamide]
21 | 166 | < 0.1 | CC1(CC(=O)Nn2nc(-c3ccc(Cl)cc3)c3ccccc3c2=O)CCCC1 [Example 86, N-[4-(4-chlorophenyl)-1-oxophthalazin-2(1H)-yl]-2-(1-methylcyclopentyl)acetamide]
22 | 118 | 0.1 to 0.5 | CC(C)(CC(=O)Nn1nc(-c2ccc(Cl)cc2)c2ccccc2c1=O)c1ccccc1 [Example 89, N-[4-(4-chlorophenyl)-1-oxophthalazin-2(1H)-yl]-3-methyl-3-phenylbutanamide]
23 | 122 | 0.1 to 0.5 | O=C(Cc1ccc(Cl)cc1)Nn1nc(-c2ccc(Cl)cc2)c2c(F)ccc(F)c2c1=O [Example 182, 2-(4-chlorophenyl)-N-[4-(4-chlorophenyl)-5,8-difluoro-1-oxophthalazin-2(1H)-yl]acetamide]
24 | 80 | 0.1 to 0.5 | COC(=O)c1ccc(-c2nn(NC(=O)Cc3ccc(Cl)cc3)c(=O)c3ccccc23)cc1 [Example 80, methyl 4-(3-{[(4-chlorophenyl)acetyl]amino}-4-oxo-3,4-dihydrophthalazin-1-yl)benzoate]
25 | 138 | < 0.1 | O=C(CC1CCCC1)Nn1nc(-c2ccc(Cl)cc2)c2ccccc2c1=O [Example 109, N-[4-(4-chlorophenyl)-1-oxophthalazin-2(1H)-yl]-2-cyclopentylacetamide]
26 | 12 | > 10 | O=C(CC1(c2ccccc2)CCCC1)Nn1nc(-c2ccc(Cl)cc2)c2ccccc2c1=O [Example 119, N-[4-(4-chlorophenyl)-1-oxophthalazin-2(1H)-yl]-2-(1-phenylcyclopentyl)acetamide]
27 | 177 | 0.1 to 0.5 | Cc1ccc(C)c(-c2nn(NC(=O)CC34CC5CC(CC(C5)C3)C4)c(=O)c3ccccc23)c1 [Example 156, 2-(adamantan-1-yl)-N-[4-(2,5-dimethylphenyl)-1-oxophthalazin-2(1H)-yl]acetamide]
28 | 128 | < 0.1 | O=C(Cc1cc(F)cc(F)c1)Nn1nc(Cc2ccccc2)c2ccccc2c1=O [Example 143, N-(4-benzyl-1-oxophthalazin-2(1H)-yl)-2-(3,5-difluorophenyl)acetamide]
29 | 160 | < 0.1 | CC(C)(C)c1nn(NC(=O)CC2CC3CCC2C3)c(=O)c2ccccc12 (racemic) [Example 63, (±)-2-(exo-bicyclo[2.2.1]heptan-2-yl)-N-(4-tert-butyl-1-oxophthalazin-2(1H)-yl)acetamide]
30 | 13 | > 10 | COc1ccc(-c2nn(NC(=O)CC34CC5CC(CC(C5)C3)C4)c(=O)c3ccc(Br)cc23)cc1 [Example 175, 2-(adamantan-1-yl)-N-[6-bromo-4-(4-methoxyphenyl)-1-oxophthalazin-2(1H)-yl]acetamide]
31 | 154 | < 0.1 | O=C(CC1CC2CCC1C2)Nn1nc(-c2ccc(Cl)cc2)c2c(F)ccc(F)c2c1=O (racemic) [Example 184, (±)-2-(exo-bicyclo[2.2.1]hept-2-yl)-N-[4-(4-chlorophenyl)-5,8-difluoro-1-oxophthalazin-2(1H)-yl]acetamide]
32 | 50 | > 10 | CN(C)C(=O)c1ccc(-c2nn(NC(=O)CC3CC4CCC3C4)c(=O)c3ccccc23)cc1 (racemic) [Example 81, (±)-4-(3-{[exo-bicyclo[2.2.1]hept-2-ylacetyl]amino}-4-oxo-3,4-dihydrophthalazin-1-yl)-N,N-dimethylbenzamide]
33 | 140 | 0.1 to 0.5 | O=C(Cc1cc(F)cc(F)c1)Nn1nc(-c2cccc(Cl)c2)c2ccccc2c1=O [Example 128, N-[4-(3-chlorophenyl)-1-oxophthalazin-2(1H)-yl]-2-(3,5-difluorophenyl)acetamide]
34 | 132 | < 0.1 | O=C(CC12CC3CC(CC(C3)C1)C2)Nn1nc(-c2ccc(Cl)cc2)c2ccccc2c1=O [Example 116, 2-(adamantan-1-yl)-N-[4-(4-chlorophenyl)-1-oxophthalazin-2(1H)-yl]acetamide]
35 | 152 | 0.1 to 0.5 | O=C(CC12CC3CC(CC(C3)C1)C2)Nn1nc(-c2ccccc2)c2c(c1=O)CCC2 [Example 189, 2-(adamantan-1-yl)-N-(1-oxo-4-phenyl-1,5,6,7-tetrahydro-2H-cyclopenta[d]pyridazin-2-yl)acetamide]
36 | 130 | < 0.1 | O=C(Cc1ccc(Cl)cc1)Nn1nc(C2CCCC2)c2ccccc2c1=O [Example 72, 2-(4-chlorophenyl)-N-(4-cyclopentyl-1-oxophthalazin-2(1H)-yl)acetamide]
